The text below walks through data of ChEMBL document CHEMBL1932914, “A new class of non-thiazolidinedione, non-carboxylic-acid-based highly selective peroxisome proliferator-activated receptor (PPAR) γ agonists: design and synthesis of benzylpyrazole acylsulfonamides” (Bioorg Med Chem, 2012).

Active and inactive are the calls of the source. The calls are words filed in the database; no cut-off is given here.

The test system of data set [1] is Rattus norvegicus. In words: Antidiabetic activity in po dosed fatty Wister rat assessed as reduction of triglyceride level administered once daily for 7 days. It counts as functional.
Data set [2] relates to Rattus norvegicus. Put plainly: Antidiabetic activity in po dosed fatty Wister rat assessed as reduction of plasma glucose level administered once daily for 7 days. The format is functional.
In data set [3] the target is T1, Peroxisome proliferator-activated receptor gamma (Homo sapiens, UniProt P37231).
T1 sequence (P37231 whole entry): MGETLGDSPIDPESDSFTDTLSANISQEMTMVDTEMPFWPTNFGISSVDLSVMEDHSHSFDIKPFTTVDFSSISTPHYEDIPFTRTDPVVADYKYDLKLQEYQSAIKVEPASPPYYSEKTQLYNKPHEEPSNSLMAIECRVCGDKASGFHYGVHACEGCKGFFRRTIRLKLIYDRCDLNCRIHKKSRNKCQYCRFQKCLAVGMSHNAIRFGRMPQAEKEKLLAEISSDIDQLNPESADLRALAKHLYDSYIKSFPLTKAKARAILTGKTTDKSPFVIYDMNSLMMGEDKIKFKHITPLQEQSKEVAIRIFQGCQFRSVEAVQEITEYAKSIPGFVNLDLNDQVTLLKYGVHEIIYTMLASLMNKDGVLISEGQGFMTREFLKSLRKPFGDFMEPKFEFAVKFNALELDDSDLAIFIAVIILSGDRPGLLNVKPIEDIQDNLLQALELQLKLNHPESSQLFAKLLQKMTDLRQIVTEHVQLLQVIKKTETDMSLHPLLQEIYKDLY
In words: Displacement of [3H]-AD-5061 from human GST-tagged PPARgamma. On the technique in general: In a radioligand displacement assay an active substance lowers the binding of a labelled ligand.

The species entered for the next data set is Homo sapiens. Put plainly: Selectivity ratio of EC50 for human PPARalpha to EC50 for human PPARgamma1.
In data set [4] the target is T2, Peroxisome proliferator-activated receptor alpha (Homo sapiens) (UniProt Q07869).
T2 sequence (whole entry): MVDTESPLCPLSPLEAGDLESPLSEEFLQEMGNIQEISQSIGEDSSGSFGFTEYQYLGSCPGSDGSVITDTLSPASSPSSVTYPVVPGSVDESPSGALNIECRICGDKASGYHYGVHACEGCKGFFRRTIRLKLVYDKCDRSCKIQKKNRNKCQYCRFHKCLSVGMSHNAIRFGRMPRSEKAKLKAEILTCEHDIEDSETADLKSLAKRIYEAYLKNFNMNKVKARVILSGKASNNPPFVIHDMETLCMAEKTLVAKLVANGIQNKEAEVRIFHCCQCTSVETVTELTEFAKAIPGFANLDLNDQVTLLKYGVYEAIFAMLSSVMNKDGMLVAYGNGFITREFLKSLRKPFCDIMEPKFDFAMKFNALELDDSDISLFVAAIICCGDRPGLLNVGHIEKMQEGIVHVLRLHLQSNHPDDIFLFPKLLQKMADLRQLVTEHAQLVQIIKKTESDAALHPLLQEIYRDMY
Put plainly: Binding affinity to PPARalpha at 10 uM by competitive binding assay.

Data set [5] addresses T2, Peroxisome proliferator-activated receptor alpha (Homo sapiens). Put plainly: Agonist activity at human PPARalpha expressed in COS-1 cells at 10 uM after 1 day by luciferase reporter gene transactivation assay. It counts as functional, cell-based. On the technique in general: In a reporter assay the amount or activity of a reporter protein is the signal.
The target of data set [6] is T3, Peroxisome proliferator-activated receptor delta (Homo sapiens) (UniProt Q03181).
T3 sequence (whole entry): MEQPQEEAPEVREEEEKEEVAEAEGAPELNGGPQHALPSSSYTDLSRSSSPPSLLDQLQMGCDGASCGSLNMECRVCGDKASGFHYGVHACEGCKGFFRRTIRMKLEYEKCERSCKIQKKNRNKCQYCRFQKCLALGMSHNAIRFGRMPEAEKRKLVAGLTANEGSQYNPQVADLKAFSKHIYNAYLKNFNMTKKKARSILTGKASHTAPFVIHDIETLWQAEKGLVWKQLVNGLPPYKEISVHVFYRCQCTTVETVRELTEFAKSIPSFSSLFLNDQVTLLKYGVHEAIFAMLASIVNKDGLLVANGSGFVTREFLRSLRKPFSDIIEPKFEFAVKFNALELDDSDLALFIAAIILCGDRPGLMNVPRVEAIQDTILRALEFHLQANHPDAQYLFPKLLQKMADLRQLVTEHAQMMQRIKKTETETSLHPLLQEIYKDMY
In words: Binding affinity to PPARdelta at 10 uM by competitive binding assay.

The target in data set [7] is T4, Peroxisome proliferator-activated receptor delta (Homo sapiens, UniProt Q03181).
T4 sequence (Q03181 whole entry): T3 sequence (whole entry)
Put plainly: Agonist activity at human PPARdelta expressed in COS-1 cells after 2 days by luciferase reporter gene transactivation assay. It counts as functional, cell-based.

The target in data set [8] is PPAR delta/gamma (Homo sapiens) (UniProt P37231+Q03181). In words: Selectivity ratio of EC50 for human PPARdelta to EC50 for human PPARgamma1.
Data set [9] can be described thus: Clearance in human liver microsomes at 1 umol/L after 20 mins by HPLC analysis. The format is ADME, Microsome. To be noted: read-out: CLH.
Data set [10] has as its target T5, Peroxisome proliferator-activated receptor alpha (Homo sapiens, UniProt Q07869).
T5 sequence (Q07869 whole entry): T2 sequence (whole entry)
In words: Agonist activity at human PPARalpha expressed in COS-1 cells after 1 day by luciferase reporter gene transactivation assay. It counts as functional, cell-based.

Data set [11] is described as follows: Clearance in rat liver microsomes at 1 umol/L after 20 mins by HPLC analysis. The format is ADME, Microsome. As to conditions: read-out: CLH.

For orientation: IC50 means the concentration that gives 50% inhibition. A low value points to greater potency in that assay. As usually defined, the EC50 is the concentration at which the effect is half-maximal. Low readings indicate higher potency in that assay, high ones lower potency in that assay. On to `CC(C)CCS(=O)(=O)NC(=O)/C=C/c1cc(OC(C)C)nn1Cc1ccc(C(F)(F)F)cc1Cl`, for which the Activity result was “Dose-dependent effect” in the data set on Rattus norvegicus [1], “Dose-dependent effect” with Rattus norvegicus [2] and 48% in [5]. In addition, the ED25 was 0.09 mg/kg with Rattus norvegicus [1] (168 h) and 0.21 mg/kg in the data set on Rattus norvegicus [2] (168 h). The half-maximal inhibitory concentration (IC50) in data set [3] was found to be 0.015 µM. Moreover, the Ratio EC50 (in the data set listed under Homo sapiens; in [8]) was greater than 500 throughout. For the same molecule, the outcome in [4] and in [6] was inactive. The EC50 in data set [7] and in [10] was greater than 10 µM throughout. For the same molecule, the microsomal CLint at 1 µM in [9] is 32 µL/min/mg; in data set [11] it was 51 µL/min/mg.
